Test results reported in patent US10131652B2, “Pyrimidinyloxy benzene derivatives as herbicides” (E. I. DU PONT DE NEMOURS AND COMPANY, priority 2014, dated 2018).
Where two headings read alike, the source gives them in different places.

Key:
Assay in all cases: Test E pre-/postemergence plant response
Assay type in all cases: in vivo
[1] = test system: canarygrass (Phalaris minor); details: scale 0 to 100, read-out: Plant response rating, Canarygrass; for pest or weed control at 16 g/ha: 16 g ai/ha; for pest or weed control at 31 g/ha: 31 g ai/ha; for pest or weed control at 62 g/ha: 62 g ai/ha; for pest or weed control at 125 g/ha: 125 g ai/ha
Description: (§1) Seeds of plant species selected from bluegrass (annual bluegrass, Poa annua), blackgrass (Alopecurus myosuroides), canarygrass (Phalaris minor), chickweed (common chickweed, Stellaria media), galium (catchweed bedstraw, Galium aparine), downy bromegrass (Bromus tectorum), field poppy (Papaver rhoeas), field violet (Viola arvensis), green foxtail (Setaria viridis), deadnettle (henbit deadnettle, Lamium amplexicaule), Italian ryegrass (Lolium multiflorum), kochia (Kochia scoparia), lambsquarters (Chenopodium album), oilseed rape (Brassica napus), pigweed (Amaranthus retroflexus), Russian thistle (Salsola iberica), chamomile (scentless chamomile, Matricaria inodora), speedwell (bird's-eye speedwell, Veronica persica), spring barley (Hordeum vulgare), spring wheat (Triticum aestivum), wild buckwheat (Polygonum convolvulus), wild mustard (Sinapis arvensis), wild oat (Avena fatua), wild radish (Raphanus raphanistrum), windgrass (Apera spica-venti), winter barley (Hordeum vulgare), and winter wheat (Triticum aestivum) were planted into a silt loam soil and treated preemergence with test chemicals formulated in a non-phytotoxic solvent mixture which included a surfactant. At the same time, these species were planted in pots containing Redi-Earth® planting medium (Scotts Company, 14111 Scottslawn Road, Marysville, Ohio 43041) comprising spaghnum peat moss, vermiculite, wetting agent and starter nutrients and treated with postemergence applications of the test chemicals formulated in the same manner. Plants ranged in height from 2 to 18 cm (1- to 4-leaf stage).
(§2) Treated plants and controls were maintained in a controlled growth environment for 7 to 21 days after which time all species were compared to controls and visually evaluated. Plant response ratings, summarized in Table E, are based on a scale of 0 to 100 where 0 is no effect and 100 is complete control. A dash (-) response means no test result.

[2] = test system: chamomile (scentless chamomile, Matricaria inodora); details: Tripleurospermum inodorum, scale 0 to 100, read-out: Plant response rating, Chamomile; for pest or weed control at 16 g/ha: 16 g ai/ha; for pest or weed control at 31 g/ha: 31 g ai/ha; for pest or weed control at 62 g/ha: 62 g ai/ha; for pest or weed control at 125 g/ha: 125 g ai/ha
Description: as §1, §2

[3] = test system: deadnettle (henbit deadnettle, Lamium amplexicaule); details: scale 0 to 100, read-out: Plant response rating, Deadnettle; for pest or weed control at 16 g/ha: 16 g ai/ha; for pest or weed control at 31 g/ha: 31 g ai/ha; for pest or weed control at 62 g/ha: 62 g ai/ha; for pest or weed control at 125 g/ha: 125 g ai/ha
Description: as §1, §2

[4] = test system: downy bromegrass (Bromus tectorum); details: scale 0 to 100, read-out: Plant response rating, Bromegrass, Downy; for pest or weed control at 16 g/ha: 16 g ai/ha; for pest or weed control at 31 g/ha: 31 g ai/ha; for pest or weed control at 62 g/ha: 62 g ai/ha; for pest or weed control at 125 g/ha: 125 g ai/ha
Description: as §1, §2

[5] = test system: field poppy (Papaver rhoeas); details: scale 0 to 100, read-out: Plant response rating, Field Poppy; for pest or weed control at 16 g/ha: 16 g ai/ha; for pest or weed control at 31 g/ha: 31 g ai/ha; for pest or weed control at 62 g/ha: 62 g ai/ha; for pest or weed control at 125 g/ha: 125 g ai/ha
Description: as §1, §2

[6] = test system: oilseed rape (Brassica napus); details: scale 0 to 100, read-out: Plant response rating, Oilseed Rape; for plant injury at 16 g/ha: 16 g ai/ha; for plant injury at 31 g/ha: 31 g ai/ha; for plant injury at 62 g/ha: 62 g ai/ha; for plant injury at 125 g/ha: 125 g ai/ha
Description: as §1, §2

[7] = test system: spring wheat (Triticum aestivum); details: post-emergence, Postemergence, scale 0 to 100, read-out: Plant response rating, Wheat, Spring
Description: as §1, §2

[8] = test system: wild buckwheat (Polygonum convolvulus); details: Fallopia convolvulus, scale 0 to 100, read-out: Plant response rating, Buckwheat, Wild; for pest or weed control at 16 g/ha: 16 g ai/ha; for pest or weed control at 31 g/ha: 31 g ai/ha; for pest or weed control at 62 g/ha: 62 g ai/ha; for pest or weed control at 125 g/ha: 125 g ai/ha
Description: as §1, §2

wild oat (Avena fatua) = details: scale 0 to 100, read-out: Plant response rating, Oat, Wild; for pest or weed control at 16 g/ha: 16 g ai/ha; for pest or weed control at 31 g/ha: 31 g ai/ha; for pest or weed control at 62 g/ha: 62 g ai/ha; for pest or weed control at 125 g/ha: 125 g ai/ha
Description: as §1, §2

[9] = test system: windgrass (Apera spica-venti); details: scale 0 to 100, read-out: Plant response rating, Windgrass; for pest or weed control at 16 g/ha: 16 g ai/ha; for pest or weed control at 62 g/ha: 62 g ai/ha; for pest or weed control at 125 g/ha: 125 g ai/ha
Description: as §1, §2

[10] = test system: winter barley (Hordeum vulgare); details: post-emergence, Postemergence, scale 0 to 100, read-out: Plant response rating, Barley, Winter
Description: as §1, §2

FC(F)c1cc(-c2ccccc2Oc2ncc(Cl)cn2)no1 [Compound 35, 5-chloro-2-[2-[5-(difluoromethyl)-3-isoxazolyl]phenoxy]pyrimidine]
pest or weed control at 16 g/ha ([1]; post-emergence, Postemergence): 10% | pest or weed control at 31 g/ha ([1]; post-emergence, Postemergence): 25% | pest or weed control at 62 g/ha ([1]; post-emergence, Postemergence): 55% | pest or weed control at 125 g/ha ([1]; post-emergence, Postemergence): 60% | pest or weed control at 16 g/ha ([1]; pre-emergence, Preemergence): 40% | pest or weed control at 31 g/ha ([1]; pre-emergence, Preemergence): 55% | pest or weed control at 62 g/ha ([1]; pre-emergence, Preemergence): 95% | pest or weed control at 125 g/ha ([1]; pre-emergence, Preemergence): 100% | pest or weed control at 16 g/ha ([2]; post-emergence, Postemergence): 5% | pest or weed control at 31 g/ha ([2]; post-emergence, Postemergence): 5% | pest or weed control at 62 g/ha ([2]; post-emergence, Postemergence): 5% | pest or weed control at 125 g/ha ([2]; post-emergence, Postemergence): 10% | pest or weed control at 16 g/ha ([2]; pre-emergence, Preemergence): 5% | pest or weed control at 31 g/ha ([2]; pre-emergence, Preemergence): 10% | pest or weed control at 62 g/ha ([2]; pre-emergence, Preemergence): 70% | pest or weed control at 125 g/ha ([2]; pre-emergence, Preemergence): 70% | pest or weed control at 16 g/ha ([3]; post-emergence, Postemergence): 40% | pest or weed control at 31 g/ha ([3]; post-emergence, Postemergence): 60% | pest or weed control at 62 g/ha ([3]; post-emergence, Postemergence): 70% | pest or weed control at 125 g/ha ([3]; post-emergence, Postemergence): 80% | pest or weed control at 16 g/ha ([3]; pre-emergence, Preemergence): 35% | pest or weed control at 31 g/ha ([3]; pre-emergence, Preemergence): 80% | pest or weed control at 62 g/ha ([3]; pre-emergence, Preemergence): 95% | pest or weed control at 125 g/ha ([3]; pre-emergence, Preemergence): 95% | pest or weed control at 16 g/ha ([4]; post-emergence, Postemergence): 5% | pest or weed control at 31 g/ha ([4]; post-emergence, Postemergence): 5% | pest or weed control at 62 g/ha ([4]; post-emergence, Postemergence): 15% | pest or weed control at 125 g/ha ([4]; post-emergence, Postemergence): 30% | pest or weed control at 16 g/ha ([4]; pre-emergence, Preemergence): 0% | pest or weed control at 31 g/ha ([4]; pre-emergence, Preemergence): 35% | pest or weed control at 62 g/ha ([4]; pre-emergence, Preemergence): 35% | pest or weed control at 125 g/ha ([4]; pre-emergence, Preemergence): 25% | pest or weed control at 16 g/ha ([5]; post-emergence, Postemergence): 70% | pest or weed control at 31 g/ha ([5]; post-emergence, Postemergence): 75% | pest or weed control at 62 g/ha ([5]; post-emergence, Postemergence): 80% | pest or weed control at 125 g/ha ([5]; post-emergence, Postemergence): 100% | pest or weed control at 16 g/ha ([5]; pre-emergence, Preemergence): 75% | pest or weed control at 31 g/ha ([5]; pre-emergence, Preemergence): 80% | pest or weed control at 62 g/ha ([5]; pre-emergence, Preemergence): 90% | pest or weed control at 125 g/ha ([5]; pre-emergence, Preemergence): 90% | plant injury at 16 g/ha ([6]; post-emergence, Postemergence): 70% | plant injury at 31 g/ha ([6]; post-emergence, Postemergence): 80% | plant injury at 62 g/ha ([6]; post-emergence, Postemergence): 95% | plant injury at 125 g/ha ([6]; post-emergence, Postemergence): 100% | plant injury at 16 g/ha ([6]; pre-emergence, Preemergence): 60% | plant injury at 31 g/ha ([6]; pre-emergence, Preemergence): 95% | plant injury at 62 g/ha ([6]; pre-emergence, Preemergence): 100% | plant injury at 125 g/ha ([6]; pre-emergence, Preemergence): 100% | plant injury at 16 g/ha ([7]; 16 g ai/ha): 0% | plant injury at 31 g/ha ([7]; 31 g ai/ha): 10% | plant injury at 62 g/ha ([7]; 62 g ai/ha): 25% | plant injury at 125 g/ha ([7]; 125 g ai/ha): 40% | pest or weed control at 16 g/ha ([8]; post-emergence, Postemergence): 75% | pest or weed control at 31 g/ha ([8]; post-emergence, Postemergence): 85% | pest or weed control at 62 g/ha ([8]; post-emergence, Postemergence): 90% | pest or weed control at 125 g/ha ([8]; post-emergence, Postemergence): 95% | pest or weed control at 16 g/ha ([8]; pre-emergence, Preemergence): 60% | pest or weed control at 31 g/ha ([8]; pre-emergence, Preemergence): 75% | pest or weed control at 62 g/ha ([8]; pre-emergence, Preemergence): 90% | pest or weed control at 125 g/ha ([8]; pre-emergence, Preemergence): 100% | pest or weed control at 16 g/ha (wild oat (Avena fatua); post-emergence, Postemergence): 10% | pest or weed control at 31 g/ha (wild oat (Avena fatua); post-emergence, Postemergence): 15% | pest or weed control at 62 g/ha (wild oat (Avena fatua); post-emergence, Postemergence): 35% | pest or weed control at 125 g/ha (wild oat (Avena fatua); post-emergence, Postemergence): 60% | pest or weed control at 16 g/ha (wild oat (Avena fatua); pre-emergence, Preemergence): 0% | pest or weed control at 31 g/ha (wild oat (Avena fatua); pre-emergence, Preemergence): 0% | pest or weed control at 62 g/ha (wild oat (Avena fatua); pre-emergence, Preemergence): 45% | pest or weed control at 125 g/ha (wild oat (Avena fatua); pre-emergence, Preemergence): 35% | pest or weed control at 16 g/ha ([9]; post-emergence, Postemergence): 10% | pest or weed control at 31 g/ha ([9]; post-emergence, 31 g ai/ha, Postemergence): 25% | pest or weed control at 62 g/ha ([9]; post-emergence, Postemergence): 30% | pest or weed control at 125 g/ha ([9]; post-emergence, Postemergence): 40% | pest or weed control at 16 g/ha ([9]; pre-emergence, Preemergence): 35% | pest or weed control at 62 g/ha ([9]; pre-emergence, Preemergence): 85% | pest or weed control at 125 g/ha ([9]; pre-emergence, Preemergence): 100% | plant injury at 16 g/ha ([10]; 16 g ai/ha): 0% | plant injury at 31 g/ha ([10]; 31 g ai/ha): 0% | plant injury at 62 g/ha ([10]; 62 g ai/ha): 5% | plant injury at 125 g/ha ([10]; 125 g ai/ha): 30%
